# Results published in ChEMBL document CHEMBL1201862, “PubChem BioAssay data set” (2004).
#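 1) Cells in 96-well plates. 2) Compound, 48 h, 5 concentrations. 3) Linear interpolation between surrounding doses. 4) Unreached endpoint = highest concentration. GI50 marks 50% less growth.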 Calls of active or inactive are those of the source. Cut-off read from the data, not from the text of the source: active = GI50 up to about 1.1 µM and inactive = higher.
# Columns and labels:
# Experiment in all cases: growth of human tumour cells (NCI), 48 h
# MCF7 = system: MCF7
# HCT-15 = system: HCT-15
# RPMI-8226 = system: RPMI-8226
# HCC 2998 = system: HCC 2998
# SNB-19 = system: SNB-19
# UACC-257 = system: UACC-257
# SK-MEL-28 = system: SK-MEL-28
# IGROV-1 = system: IGROV-1
# NCI-H23 = system: NCI-H23
# EKVX = system: EKVX
# HOP-62 = system: HOP-62
# UACC-62 = system: UACC-62
# OVCAR-4 = system: OVCAR-4
# SK-OV-3 = system: SK-OV-3
# NCI-H460 = system: NCI-H460
# K562 = system: K562
# NCI-H226 = system: NCI-H226
# KM12 = system: KM12
# CAKI-1 = system: CAKI-1
# Malme-3M = system: Malme-3M
compound,measurement,setting,value
COc1cc2c(cc1Oc1c(Oc3c(O)c(OC)cc4c3C(CC(C)C)N(C)CC4)c(OC)cc3c1C(CC(C)C)N(C)CC3)C(CC(C)C)N(C)CC2 (stereo not given),GI50,MCF7,632 nM (active)
same,GI50,HCT-15,1810 nM
same,GI50,RPMI-8226,2340 nM (inactive)
same,GI50,HCC 2998,920 nM (active)
same,GI50,SNB-19,582 nM (active)
same,GI50,UACC-257,1450 nM (inactive)
same,GI50,SK-MEL-28,897 nM (active)
same,GI50,IGROV-1,3020 nM (inactive)
same,GI50,NCI-H23,787 nM (active)
same,GI50,EKVX,528 nM (active)
same,GI50,HOP-62,533 nM (active)
same,GI50,UACC-62,573 nM (active)
same,GI50,OVCAR-4,1120 nM (inactive)
same,GI50,SK-OV-3,1120 nM (active)
same,GI50,NCI-H460,519 nM (active)
same,GI50,K562,1020 nM (active)
same,GI50,NCI-H226,422 nM (active)
same,GI50,KM12,721 nM (active)
same,GI50,CAKI-1,575 nM (active)
same,GI50,Malme-3M,1110 nM (active)
